Results as given in paper PMC4315410, “A New PAMPA Model Proposed on the Basis of a Synthetic Phospholipid Membrane” (PLoS ONE, 2015).
Structures can show the parent of a compound that is named as a salt.

Key:
[1] = PAMPA with synthetic phospholipid membrane, octyl chain (C8); format: in vitro ADME; conditions: for Papp at 16 h: PAMPA, read-out: P e
Protocol: (§1) In PAMPA, a “sandwich” structure was formed by a 96-well microtiter plate and a 96-well filter plate from Millipore (IPVH, 125 μm thick filter, 0.45 μm pore), then wetted with a 4 μl 2% w/v phospholipid compound solution in n-dodecane [27].
(§2) The stock solutions of the drug samples were prepared at 10 mM concentrations in DMSO and stored at 0°C before use. Before being added to a 96-well filter plate, the stock solution was diluted first with buffer to achieve a final sample concentration of 10∼50 μM and to reduce the DMSO concentration below 1% (v/v).
(§3) The PAMPA plate was filled with a 300 μl diluted drug solution to prepare the “donor” wells, and the 96-well filter plate containing a synthetic phospholipid membrane was then placed on the donor wells. The “acceptor” wells were filled with 200 μl of buffer solution and placed on top of the “sandwich”, and the PAMPA instruments were incubated at 25°C in a sealed and saturated humidity container for a specified time. After reaching the permeation time, the PAMPA plate sandwich was separated, and the amount of drugs in both the donor and acceptor compartments were measured by comparing the experimental spectra with the UV spectrum (220∼400 nm) obtained from reference standards.
(§4) The factor S was the fraction of samples remaining in the donor and the acceptor wells at time t.
(§5) In the incubation time assays, the pH was 7.4 in both the donor and acceptor wells. In the pH-gradient assays, the pH of the drug solutions was varied using NaOH-treated universal buffer (pION Inc.) in the donor wells, and the pH in the acceptor solution was pH 7.4 [15]. In addition, the incubation time in the pH-gradient test assays was 16 h.

[2] = PAMPA with synthetic phospholipid membrane, decyl chain (C10); format: in vitro ADME; conditions: for Papp at 16 h: PAMPA, read-out: P e
Protocol: as §1, §2, §3, §4, §5

[3] = design: method as in PMID 11576780, PMID 9691477; conditions: cited from earlier work
[4] = PAMPA with synthetic phospholipid membrane, lauryl chain (C12); format: in vitro ADME; conditions: for Papp at 16 h: PAMPA, read-out: P e
Protocol: as §1, §2, §3, §4, §5

[5] = design: method as in DrugBank database; conditions: ref DrugBank database; cited from earlier work
[6] = design: method as in Chinese Pharmacopoeia, 2005 edition and references 15, 27, 38; conditions: ref Chinese Pharmacopoeia, 2005 edition and references 15, 27, 38; cited from earlier work
[7] = C8, donor pH 4.6, acceptor pH 7.4, 16 h
[8] = C8, donor pH 4.98, acceptor pH 7.4, 16 h
[9] = C8, donor pH 6.57, acceptor pH 7.4, 16 h
[10] = C8, donor pH 9.32, acceptor pH 7.4, 16 h
[11] = pH 7.4, C8 membrane, incubation time 16 h, pH 7.4 donor and acceptor, 25°C
[12] = C10, donor pH 4.98, acceptor pH 7.4, 16 h
[13] = C10, donor pH 4.6, acceptor pH 7.4, 16 h
[14] = C10, donor pH 6.57, acceptor pH 7.4, 16 h
[15] = C10, donor pH 9.32, acceptor pH 7.4, 16 h
[16] = pH 7.4, C10 membrane, incubation time 16 h, pH 7.4 donor and acceptor, 25°C
[17] = C12, donor pH 4.6, acceptor pH 7.4, 16 h
[18] = C12, donor pH 4.98, acceptor pH 7.4, 16 h
[19] = C12, donor pH 6.57, acceptor pH 7.4, 16 h
[20] = C12, donor pH 9.32, acceptor pH 7.4, 16 h
[21] = pH 7.4, C12 membrane, incubation time 16 h, pH 7.4 donor and acceptor, 25°C
[22] = C8, donor pH 8.2, acceptor pH 7.4, 16 h
[23] = C10, donor pH 8.2, acceptor pH 7.4, 16 h
[24] = C12, donor pH 8.2, acceptor pH 7.4, 16 h

Row | Papp at 16 h [1, 7] [×10⁻⁶ cm/s] | Papp at 16 h [1, 8] [×10⁻⁶ cm/s] | Papp at 16 h [1, 9] [×10⁻⁶ cm/s] | Papp at 16 h [1, 11] [×10⁻⁶ cm/s] | P e [2, 12] | Papp at 16 h [2, 16] [×10⁻⁶ cm/s] | P e [4, 17] | P e [4, 18] | Papp at 16 h [4, 21] [×10⁻⁶ cm/s] | P e [1, 9] | P e [1, 22] | P e [2, 13] | P e [2, 14] | P e [2, 23] | P e [2, 15] | P e [4, 19] | P e [4, 24] | P e [4, 20] | SMILES | Water solubility [5] [mg] | P e [1, 8] | also measured
1 | 1.1 | 2.2 | 5 | 2.7 ± 0.3 | 2.2 ×10^–6 cm/s | 2.8 ± 0.2 | 1.2 ×10^–6 cm/s | 1.2 ×10^–6 cm/s | 3.2 ± 0.4 | – | – | – | – | – | – | – | – | – | NC(N)=Nc1nc(CSCCC(N)=NS(N)(=O)=O)cs1 [Famotidine] | 1000 | – | Papp at 16 h [1, 10]: 5.1 ×10⁻⁶ cm/s; Papp at 16 h [2, 13]: 1.2 ×10⁻⁶ cm/s; Papp at 16 h [2, 14]: 5.7 ×10⁻⁶ cm/s; Papp at 16 h [2, 15]: 5.5 ×10⁻⁶ cm/s; %FA (human fraction absorbed) [3]: 40%; Papp at 16 h [4, 19]: 6 ×10⁻⁶ cm/s; Papp at 16 h [4, 20]: 6.1 ×10⁻⁶ cm/s; pKa (first value listed) [6]: 7.24; pKa (second value listed) [6]: 11.19
2 | – | – | – | 4.6 ± 0.4 | 2.1 ×10^–7 cm/s | 5.3 ± 0.3 | 1.9 ×10^–7 cm/s | 2.1 ×10^–7 cm/s | 5.7 ± 0.4 | 2.6 ×10^–7 cm/s | 2.4 ×10^–7 cm/s | 1.9 ×10^–7 cm/s | 2.5 ×10^–7 cm/s | 2.3 ×10^–7 cm/s | 2.2 ×10^–7 cm/s | 2.6 ×10^–7 cm/s | 2.3 ×10^–7 cm/s | 2.0 ×10^–7 cm/s | CC1(C)S[C@@H]2[C@H](NC(=O)[C@H](N)c3ccc(O)cc3)C(=O)N2[C@H]1C(=O)O [Amoxicillin] | – | 2.1 ×10^–7 cm/s | P e [1, 7]: 1.9 ×10^–7 cm/s; P e [1, 10]: 2.2 ×10^–7 cm/s; %FA (human fraction absorbed) [3]: 93%; pKa (second value listed) [6]: 7.31; pKa (third value listed) [6]: 9.53
3 | 23 | 23.5 | 8.5 | 13.9 ± 0.5 | – | 14.5 ± 0.5 | – | 23.0 ×10^–6 cm/s | 16.7 ± 0.4 | – | – | 23.0 ×10^–6 cm/s | – | – | 2.6 ×10^–6 cm/s | – | 1.5 ×10^–6 cm/s | 2.6 ×10^–6 cm/s | CC(C)Cc1ccc(C(C)C(=O)O)cc1 (stereo not drawn) [Ibuprofen] | 21 | – | Papp at 16 h [1, 22]: 3 ×10⁻⁶ cm/s; Papp at 16 h [1, 10]: 2.6 ×10⁻⁶ cm/s; Papp at 16 h [2, 12]: 22 ×10⁻⁶ cm/s; Papp at 16 h [2, 14]: 7 ×10⁻⁶ cm/s; Papp at 16 h [2, 23]: 1.5 ×10⁻⁶ cm/s; Papp at 16 h [4, 17]: 22.5 ×10⁻⁶ cm/s; Papp at 16 h [4, 19]: 7.5 ×10⁻⁶ cm/s
4 | 1.9 | 2.3 | 2.6 | 0.9 ± 0.1 | – | 1 ± 0.1 | – | 2.2 ×10^–6 cm/s | – | – | 2.5 ×10^–6 cm/s | 1.9 ×10^–6 cm/s | – | 2.5 ×10^–6 cm/s | 2.3 ×10^–6 cm/s | 2.6 ×10^–6 cm/s | 2.6 ×10^–6 cm/s | 2.2 ×10^–6 cm/s | CCn1cc(C(=O)O)c(=O)c2cc(F)c(N3CCNCC3)cc21 [Norfloxacin] | 178000 | – | P e [1, 10]: 2.2 ×10^–6 cm/s; Papp at 16 h [2, 12]: 2.2 ×10⁻⁶ cm/s; Papp at 16 h [2, 14]: 2.5 ×10⁻⁶ cm/s; P e ([4]; C12 membrane, incubation time 16 h, pH 7.4 donor and acceptor, 25°C): 1.0±0.1 10^−6 cm/s; Papp at 16 h [4, 17]: 1.8 ×10⁻⁶ cm/s; pKa (first value listed) [6]: 6.26
5 | – | – | – | 2.4 ± 0.4 | 1.6 ×10^–7 cm/s | 2.9 ± 0.3 | 1.6 ×10^–7 cm/s | 1.7 ×10^–7 cm/s | 3.4 ± 0.2 | 3.2 ×10^–7 cm/s | 4.9 ×10^–7 cm/s | 1.5 ×10^–7 cm/s | 3.2 ×10^–7 cm/s | 5.8 ×10^–7 cm/s | 7.2 ×10^–7 cm/s | 3.1 ×10^–7 cm/s | 4.9 ×10^–7 cm/s | 7.3 ×10^–7 cm/s | CN(C)C(=N)N=C(N)N [Metformin Hydrochloride] | – | 1.6 ×10^–7 cm/s | P e [1, 7]: 1.5 ×10^–7 cm/s; P e [1, 10]: 7.4 ×10^–7 cm/s
6 | 1.8 | 1.6 | – | 2.6 ± 0.4 | – | 2.8 ± 0.3 | 1.8 ×10^–6 cm/s | 1.9 ×10^–6 cm/s | 3.2 ± 0.3 | 2.6 ×10^–6 cm/s | 3.2 ×10^–6 cm/s | 1.8 ×10^–6 cm/s | 2.6 ×10^–6 cm/s | – | – | – | 3.2 ×10^–6 cm/s | 3.4 ×10^–6 cm/s | CN/C(=N/CCSCc1nc[nH]c1C)NC#N [Cimetidine] | 9380 | – | Papp at 16 h [1, 10]: 3.7 ×10⁻⁶ cm/s; Papp at 16 h [2, 12]: 1.9 ×10⁻⁶ cm/s; Papp at 16 h [2, 23]: 3.1 ×10⁻⁶ cm/s; Papp at 16 h [2, 15]: 3.4 ×10⁻⁶ cm/s; %FA (human fraction absorbed) [3]: 85%; Papp at 16 h [4, 19]: 2.7 ×10⁻⁶ cm/s; pKa (first value listed) [6]: 7.23

Row | SMILES | Papp at 16 h [1, 7] [×10⁻⁶ cm/s] | Papp at 16 h [1, 8] [×10⁻⁶ cm/s] | Papp at 16 h [1, 9] [×10⁻⁶ cm/s] | Papp at 16 h [1, 11] [×10⁻⁶ cm/s] | P e [2, 12] | Papp at 16 h [2, 16] [×10⁻⁶ cm/s] | P e [4, 17] | P e [4, 18] | Papp at 16 h [4, 21] [×10⁻⁶ cm/s] | P e [1, 9] | P e [1, 22] | P e [2, 13] | P e [2, 14] | P e [2, 23] | P e [2, 15] | P e [4, 19] | P e [4, 24] | P e [4, 20] | Water solubility [5] [mg] | P e [1, 8] | also measured
7 | CNC(=C[N+](=O)[O-])NCCSCc1ccc(CN(C)C)o1 [Ranitidine] | – | – | – | 1.2 ± 0.1 | 1.8 ×10^–7 cm/s | 1.4 ± 0.1 | 1.6 ×10^–7 cm/s | 1.8 ×10^–7 cm/s | 1.5 ± 0.1 | 3.2 ×10^–7 cm/s | 4.9 ×10^–7 cm/s | 1.6 ×10^–7 cm/s | 3.1 ×10^–7 cm/s | 5.8 ×10^–7 cm/s | 5.5 ×10^–7 cm/s | 3.2 ×10^–7 cm/s | 4.9 ×10^–7 cm/s | 5.4 ×10^–7 cm/s | 24.7 | 1.8 ×10^–7 cm/s | P e [1, 7]: 1.6 ×10^–7 cm/s; %FA (human fraction absorbed) [3]: 55%
8 | O=C(N[C@H](CO)[C@H](O)c1ccc([N+](=O)[O-])cc1)C(Cl)Cl [Chloroamphenicol] | 4.3 | – | 1.7 | 8.8 ± 0.2 | – | 9.8 ± 0.3 | – | 4.2 ×10^–6 cm/s | 14.6 ± 0.3 | – | – | – | – | – | 0.5 ×10^–6 cm/s | – | 0.7 ×10^–6 cm/s | 0.5 ×10^–6 cm/s | – | 4.2 ×10^–6 cm/s | Papp at 16 h [1, 22]: 0.6 ×10⁻⁶ cm/s; Papp at 16 h [1, 10]: 0.5 ×10⁻⁶ cm/s; Papp at 16 h [2, 13]: 4.2 ×10⁻⁶ cm/s; Papp at 16 h [2, 12]: 4 ×10⁻⁶ cm/s; Papp at 16 h [2, 14]: 1 ×10⁻⁶ cm/s; Papp at 16 h [2, 23]: 0.7 ×10⁻⁶ cm/s; Papp at 16 h [4, 17]: 4.4 ×10⁻⁶ cm/s; Papp at 16 h [4, 19]: 1.5 ×10⁻⁶ cm/s; pKa (first value listed) [6]: 4.3
9 | COCCc1ccc(OCC(O)CNC(C)C)cc1 (stereo not drawn) [Metoprolol Tartrate] | – | – | – | 9.2 ± 0.6 | 2.5 ×10^–5 cm/s | 10.3 ± 0.5 | 1.6 ×10^–5 cm/s | 2.6 ×10^–5 cm/s | 11.7 ± 0.5 | 5.1 ×10^–5 cm/s | 8.0 ×10^–5 cm/s | 1.4 ×10^–5 cm/s | 5.3 ×10^–5 cm/s | 7.5 ×10^–5 cm/s | 9.3 ×10^–5 cm/s | 5.0 ×10^–5 cm/s | 8.0 ×10^–5 cm/s | 9.1 ×10^–5 cm/s | 16900 | 2.7 ×10^–5 cm/s | P e [1, 10]: 8.9 ×10^–5 cm/s
